{"source": "patent US10034864B2", "about": "“1,2,5-oxadiazoles as inhibitors of indoleamine 2,3-dioxygenase” (Incyte Corporation, priority 2008, dated 2018)", "origin": "cited, not measured here", "key": {"LLC tumors": {"test_system": "LLC tumors", "details": "LLC tumors in C57Bl/6 mice, versus placebo (Friberg 2002)"}, "P815 tumor": {"test_system": "P815 tumor", "details": "pre-immunized immune-competent mice challenged with tumor cells (Uyttenhove 2003)"}}, "data": [{"smiles": "Cn1cc(C[C@H](N)C(=O)O)c2ccccc21", "note": "[Example 1-MT, 1-methyl-tryptophan]", "values": [{"measurement": "formation of tumors", "setting": "LLC tumors", "result": "markedly delayed"}, {"measurement": "growth of tumors", "setting": "P815 tumor", "result": "inhibited"}]}]}
